Assays:
[1] = molecular target: T1, catalytic domain of human VEGFR3 (Homo sapiens, UniProt P35916, H890Q); assay: VEGFR-3 Homogenous Time-Resolved Fluorescence Assay (VEGFR-3-HTRF); type: biochemical; settings: for IC50: read-out: VEGFR3 PIC50 VEGFR-3-HTRF assay
T1 construct: made in house; host or cells: Sf9 insect cells (baculovirus, pFastBac1)
In short: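 GST-tagged human VEGFR3 catalytic domain (aa 819–1298, Sf9-expressed), pre-autophosphorylated 45 min with ATP/Mg, then 1 nM enzyme with 0.36 μM biotinylated peptide, 75 μM ATP, 10 mM MgCl2, pH 7.2, 1.5 h at room temperature. EDTA stop; HTRF detection; IC50 from hyperbolic fit of % control.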

Recombinant GST-Tie2 = Recombinant GST-Tie2 (Homo sapiens, UniProt Q02763); assay: Tie2 Fluorescence Polarization Kinase Activity Assay (TIE2-FP); type: biochemical
Sequence of Recombinant GST-Tie2 (Q02763 23-1124): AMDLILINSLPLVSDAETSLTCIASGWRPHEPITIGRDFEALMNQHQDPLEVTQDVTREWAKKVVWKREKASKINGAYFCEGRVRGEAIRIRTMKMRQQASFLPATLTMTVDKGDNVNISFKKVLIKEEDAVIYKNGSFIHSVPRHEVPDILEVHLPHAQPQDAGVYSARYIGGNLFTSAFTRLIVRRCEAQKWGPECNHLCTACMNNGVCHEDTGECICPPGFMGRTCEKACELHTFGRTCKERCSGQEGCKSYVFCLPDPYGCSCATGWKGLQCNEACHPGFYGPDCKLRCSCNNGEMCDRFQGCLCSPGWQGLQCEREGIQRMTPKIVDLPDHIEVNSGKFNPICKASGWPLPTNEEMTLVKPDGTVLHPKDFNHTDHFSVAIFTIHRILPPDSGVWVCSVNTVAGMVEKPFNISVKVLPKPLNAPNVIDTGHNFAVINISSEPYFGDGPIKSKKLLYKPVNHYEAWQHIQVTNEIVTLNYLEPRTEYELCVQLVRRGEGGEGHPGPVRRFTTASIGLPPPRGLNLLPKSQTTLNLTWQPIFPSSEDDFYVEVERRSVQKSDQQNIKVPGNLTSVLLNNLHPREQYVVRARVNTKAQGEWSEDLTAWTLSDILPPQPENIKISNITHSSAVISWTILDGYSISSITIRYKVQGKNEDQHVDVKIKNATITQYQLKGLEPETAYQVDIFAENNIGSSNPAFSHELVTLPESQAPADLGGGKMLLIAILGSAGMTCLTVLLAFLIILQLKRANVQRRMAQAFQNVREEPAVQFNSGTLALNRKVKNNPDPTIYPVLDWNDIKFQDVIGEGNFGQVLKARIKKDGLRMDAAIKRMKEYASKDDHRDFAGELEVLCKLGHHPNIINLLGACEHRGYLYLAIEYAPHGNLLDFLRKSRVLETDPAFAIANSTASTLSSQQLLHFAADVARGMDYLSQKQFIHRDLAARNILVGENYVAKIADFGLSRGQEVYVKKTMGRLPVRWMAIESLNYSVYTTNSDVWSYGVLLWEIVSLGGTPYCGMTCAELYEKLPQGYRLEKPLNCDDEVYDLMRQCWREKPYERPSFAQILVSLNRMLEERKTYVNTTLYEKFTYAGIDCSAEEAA
Method: Tie2 Fluorescence Polarization Kinase Activity Assay: (TIE2-FP)
Activation of Recombinant Tie2 Activation:
Recombinant GST-Tie2 is activated by incubating the enzyme in 20 mM Tris-HCl, pH 7.5, 12 mM MgCl2, 100 mM NaCl, 20 μM sodium vanidate, 1 mM DTT and 300 μM ATP at room temperature for 2 hours. The activation mixture is then passed through a NAP-25 desalting column (Pharmacia Biotech cat. no. 17-0852-02) to remove the free ATP. The activated enzyme is stored as aliquots at −80° C. in 20 mM Tris-HCl, pH 7.5 and 100 mM NaCl.
The final assay conditions are 50 mM HEPES, pH 7.5, 5% DMSO (when screening compounds), 200 μM ATP, 5 mM MgCl2, 1 mM DTT, 50 μM sodium vanidate, 1 nM activated enzyme, and 200 μM peptide. IC50's of compounds are measured under subsaturating ATP (200 μM) and varying concentrations of activated Tie2 and peptide substrate (RFWKYEFWR-OH; MW 1873 Da, TFA salt). Panvera Anti-phosphotyrosine antibody (Cat#P2840) and PTK Green Tracer (Cat#P2842) are used to detect the phosphorylated peptide. Polarization is measured on a TECAN Polarion in 138-second cycles for 30 minutes at room temperature. IC50's are then determined from the % polarization using normal calculation methods. The IC50 values are converted to pIC50 values, i.e., −log IC50 in Molar concentration.

GST-VEGFR2 = molecular target: T2, GST-VEGFR2 (Homo sapiens, UniProt P35968); assay: VEGF-R2 Enzyme Assay (VEGF-E2), LANCE method; type: biochemical; settings: for IC50: read-out: VEGFR2 PIC50 VEGFR-E2 assay
T2 construct: GST-VEGFR2, baculovirus expressed recombinant constructs of the intracellular domains; made in house
T2 sequence (P35968 786-1356 limits assumed): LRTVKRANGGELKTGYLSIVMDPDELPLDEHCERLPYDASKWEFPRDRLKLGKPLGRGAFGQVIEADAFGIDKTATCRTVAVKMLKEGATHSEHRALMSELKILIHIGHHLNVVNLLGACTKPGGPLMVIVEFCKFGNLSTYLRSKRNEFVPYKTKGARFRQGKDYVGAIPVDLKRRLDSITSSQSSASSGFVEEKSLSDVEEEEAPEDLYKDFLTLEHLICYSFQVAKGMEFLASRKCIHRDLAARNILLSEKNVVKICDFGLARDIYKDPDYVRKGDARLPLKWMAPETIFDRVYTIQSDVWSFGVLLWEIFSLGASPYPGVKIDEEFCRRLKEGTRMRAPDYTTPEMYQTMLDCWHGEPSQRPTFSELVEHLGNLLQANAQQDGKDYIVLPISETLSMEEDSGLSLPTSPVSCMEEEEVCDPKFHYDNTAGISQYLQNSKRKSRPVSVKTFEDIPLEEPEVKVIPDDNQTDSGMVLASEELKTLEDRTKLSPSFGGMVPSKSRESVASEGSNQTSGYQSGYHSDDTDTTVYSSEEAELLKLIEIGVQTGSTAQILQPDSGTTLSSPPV

[2] = molecular target: T3, TIE2 intracellular domain/c-fms extracellular domain (TIE2/c-fms) chimeric protein (Homo sapiens, UniProt Q02763); assay: TIE-2 Autophosphorylation Assay (TIE2-C); type: cell-based; settings: TIE2/c-fms expressing mouse 3T3 cells
T3 construct: fused on or other part: c-fms (CSF1R) extracellular domain in place of TIE2's own ectodomain; it serves as the capture handle for the anti-c-fms ELISA; P07333 (Macrophage colony-stimulating factor 1 receptor)
T3 sequence (Q02763 whole entry, change not shown, the tested form may be a part): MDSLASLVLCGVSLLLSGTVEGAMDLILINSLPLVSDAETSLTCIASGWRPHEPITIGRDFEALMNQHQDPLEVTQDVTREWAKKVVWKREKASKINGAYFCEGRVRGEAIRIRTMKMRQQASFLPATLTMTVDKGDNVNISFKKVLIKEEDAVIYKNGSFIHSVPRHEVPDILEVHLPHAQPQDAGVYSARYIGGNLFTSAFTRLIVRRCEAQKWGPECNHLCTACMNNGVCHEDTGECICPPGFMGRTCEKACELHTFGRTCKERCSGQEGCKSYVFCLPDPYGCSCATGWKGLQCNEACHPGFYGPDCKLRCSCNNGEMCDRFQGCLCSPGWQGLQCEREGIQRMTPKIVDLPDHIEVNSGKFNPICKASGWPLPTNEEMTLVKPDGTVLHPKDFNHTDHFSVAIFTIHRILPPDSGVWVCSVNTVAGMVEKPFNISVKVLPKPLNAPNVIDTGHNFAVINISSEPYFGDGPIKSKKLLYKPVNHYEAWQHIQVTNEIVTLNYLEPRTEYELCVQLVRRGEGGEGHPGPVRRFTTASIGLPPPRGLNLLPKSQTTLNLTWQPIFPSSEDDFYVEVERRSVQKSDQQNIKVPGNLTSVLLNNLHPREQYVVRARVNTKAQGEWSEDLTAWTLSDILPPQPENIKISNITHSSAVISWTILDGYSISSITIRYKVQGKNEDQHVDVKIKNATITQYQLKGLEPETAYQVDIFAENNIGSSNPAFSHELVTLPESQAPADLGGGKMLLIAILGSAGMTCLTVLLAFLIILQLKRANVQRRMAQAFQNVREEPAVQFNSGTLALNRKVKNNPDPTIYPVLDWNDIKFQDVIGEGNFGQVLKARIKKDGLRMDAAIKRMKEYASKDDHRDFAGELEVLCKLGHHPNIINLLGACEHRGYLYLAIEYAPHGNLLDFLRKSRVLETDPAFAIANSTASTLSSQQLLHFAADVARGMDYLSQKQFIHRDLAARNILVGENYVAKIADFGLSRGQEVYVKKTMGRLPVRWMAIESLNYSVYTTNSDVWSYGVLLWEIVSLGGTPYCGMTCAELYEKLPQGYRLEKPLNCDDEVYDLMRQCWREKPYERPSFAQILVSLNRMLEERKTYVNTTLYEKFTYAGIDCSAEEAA
Method: TIE-2 Autophosphorylation Assay (TIE2-C)
The TIE-2 autophosphorylation assay uses an ELISA method and a TIE2 intracellular domain/c-fms extracellular domain (TIE2/c-fms) chimeric protein expressing mouse 3T3 cell line. This assay measures the autophosphorylation level of TIE2 protein expressed in cells. The cells are cultured in 96 well plates and grown in high glucose DMEM containing 10% serum at 37° C. in a humidified 10% CO2, 90% air incubator. On the day of the assay, the serum containing medium is removed from the cells and replaced with serum free medium for one hour. The test compound (diluted from a 10 mM stock in DMSO, final DMSO concentration is 0.1%) is incubated with TIE2/c-fms expressing cells for 30 minutes in serum free DMEM. Intrinsic cellular dephosphorylation of the receptor is blocked by the addition of the tyrosine phosphatase inhibitor, sodium orthovanadate, from a 100 mM aqueous stock to a final concentration of 1 mM. The culture media is removed by aspiration and the cells incubated for 30 to 60 mins on ice with lysis buffer containing 137 mM NaCl, 2 mM EDTA, 10% glycerol, 1 mM sodium ortho vanadate, 1×tyrosine phosphatase inhibitor cocktail (Sigma) and complete protease inhibitor cocktail (Roche) in 20 mM Tris-HCl (pH8.0). The cell extracts are transferred into Rat anti-c-fms antibody (Zymed-clone 12-2d6) ([…]) coated 96 well plates and incubated for 12 hrs at 4 degrees. The extracts are removed by aspiration and the plate, washed in a buffer comprising PBS, 0.05% Tween-20, 0.05% NP-40 and 5% SuperBlock (Pierce) followed by incubation with an HRP (horseradish peroxidase) conjugated anti-phosphotyrosine antibody, (Upstate Biotech) The plates are again washed with the aforementioned wash buffer and the colorimetric HRP substrate, TMB is added. The reaction progresses for 90 seconds and is stopped with the addition of 2M H2SO4. The optical density at 450 nm derived from HRP catalyzed TMB is measured with a plate reader capable of reading at the appropriate wavelength (e.g. SpectroMax from Molecular Dynamics). The percent inhibition of activity is calculated relative to non-vanadate treated control wells. The concentration of test compound that inhibits 50% of activity (IC50) is interpolated using nonlinear regression (Levernberg-Marquardt) and the equation, y=Vmax (1−x/(K+x))+Y2, where “K” is equal to the IC50.

[3] = molecular target: T4, GST-TIE2 (intracellular domains of human TIE2) (Homo sapiens, UniProt Q02763); assay: TIE-2 Enzyme Assay (TIE2-E2), LANCE method; type: biochemical; settings: for IC50: read-out: TIE2 PIC50 TIE2-E2 assay
T4 construct: made in house
T4 sequence (Q02763 762-1104): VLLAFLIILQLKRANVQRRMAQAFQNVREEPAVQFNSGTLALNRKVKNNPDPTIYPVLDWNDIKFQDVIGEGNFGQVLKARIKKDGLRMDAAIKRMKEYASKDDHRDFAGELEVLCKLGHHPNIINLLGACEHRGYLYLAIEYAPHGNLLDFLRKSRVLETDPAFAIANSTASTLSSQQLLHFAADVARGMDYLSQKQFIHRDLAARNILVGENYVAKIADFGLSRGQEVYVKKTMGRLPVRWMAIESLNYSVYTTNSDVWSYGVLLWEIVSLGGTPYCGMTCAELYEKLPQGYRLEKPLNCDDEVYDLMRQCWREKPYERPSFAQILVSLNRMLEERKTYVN
In short: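 GST-tagged human TIE2 intracellular domain (aa 762–1104), preactivated 2 h with 80 μM ATP, then 5 nM enzyme run 2 h at room temperature with 1 μM biotinylated D1–15 peptide, 80 μM ATP, HEPES pH 7.4, 2.4% DMSO. Phosphotyrosine detected by LANCE (Eu anti-pTyr/streptavidin-APC) after EDTA stop; IC50 by nonlinear regression, reported as pIC50.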

T1 sequence (P35916 with tags, fused parts or gaps isoform P35916-1 H890Q): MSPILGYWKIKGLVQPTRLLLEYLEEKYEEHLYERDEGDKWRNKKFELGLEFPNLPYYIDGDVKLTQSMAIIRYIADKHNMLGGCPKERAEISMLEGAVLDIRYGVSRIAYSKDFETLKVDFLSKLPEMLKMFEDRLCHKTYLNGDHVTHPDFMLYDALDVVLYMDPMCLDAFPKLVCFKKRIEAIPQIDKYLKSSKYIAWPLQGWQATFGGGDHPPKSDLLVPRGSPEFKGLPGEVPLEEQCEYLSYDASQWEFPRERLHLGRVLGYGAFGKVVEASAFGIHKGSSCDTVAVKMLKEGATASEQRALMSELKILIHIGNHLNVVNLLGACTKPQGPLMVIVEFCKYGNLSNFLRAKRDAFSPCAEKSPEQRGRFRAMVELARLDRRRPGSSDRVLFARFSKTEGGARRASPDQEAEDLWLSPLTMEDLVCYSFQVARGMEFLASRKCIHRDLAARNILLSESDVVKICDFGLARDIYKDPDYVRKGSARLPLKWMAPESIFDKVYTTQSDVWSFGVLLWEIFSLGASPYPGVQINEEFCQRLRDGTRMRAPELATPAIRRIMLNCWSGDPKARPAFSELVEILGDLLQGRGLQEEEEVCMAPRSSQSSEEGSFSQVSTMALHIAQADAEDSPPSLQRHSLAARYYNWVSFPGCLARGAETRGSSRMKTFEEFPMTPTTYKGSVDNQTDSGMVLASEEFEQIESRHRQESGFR

Molecule	inhibition at 10 µM (Recombinant GST-Tie2)	IC50 [2]	IC50 [3]	IC50 (GST-VEGFR2)	further results
CCc1cccc(NC(=O)Nc2ccc(-c3nn(Cc4ccccc4)c4nc(NCCN5CCOCC5)ncc34)cc2)c1 [Example 52, 1-{4-[Benzyl-(2-morpholin-4-yl-ethylamino)-1H-pyrazolo[3,4-d]pyrimidin-3-yl]-phenyl}-3-(ethyl-phenyl)-urea]					VEGFR3 PIC50 VEGFR-3-HTRF assay [1]: + (+ = PIC50 = 5.00 to less than 6.00); IC50 (Recombinant GST-Tie2): 100 to 300 nM; VEGFR2 PIC50 VEGFR-E2 assay (GST-VEGFR2): + (+ = PIC50 = 5.00 to less than 6.00)
Cc1cc(-c2nn(C)c3nc(NCCN4CCOCC4)ncc23)ccc1NS(=O)(=O)c1ccccc1F [Example 153]	44%				
Cn1nc(-c2ccc(NS(=O)(=O)c3cc(Cl)sc3Cl)cc2)c2cnc(NCCN3CCOCC3)nc21 [Example 149]	38%				
Cn1nc(-c2ccc(NC(=O)Nc3cc(C(C)(C)C)on3)c(F)c2)c2cnc(NCCN3CCOCC3)nc21 [Example 57, 1-(5-tert-Butyl-isoxazol-3-yl)-3-{2-fluoro-4-[1-methyl-6-(2-morpholin-4-yl-ethylamino)-1H-pyrazolo[3,4-d]pyrimidin-3-yl]-phenyl}-urea]		100 to 300 nM	≤ 39.8 nM	1000 to 10000 nM	IC50 [1]: 1000 to 10000 nM
Cn1nc(-c2ccc(NC(=O)Nc3cc(C(F)(F)F)ccc3F)cc2)c2cnc(NCCCn3ccnc3)nc21 [Example 100, 1-(2-Fluoro-5-trifluoromethyl-phenyl)-3-{4-[1-methyl-6-(3-imidazol-1-yl-propylamino)-1H-pyrazolo[3,4-d]pyrimidin-3-yl]-phenyl} urea]		≥ 300 nM	≤ 39.8 nM	100 to 1000 nM	IC50 [1]: 1000 to 10000 nM
Cn1nc(-c2ccc(NS(=O)(=O)c3cccc(Cl)c3Cl)cc2)c2cnc(NCCN3CCOCC3)nc21 [Example 147]	49%				
1-(5-tert-Butyl-isoxazol-3-yl)-3-{2-fluoro-4-[1-methyl-6-(3-(imidazol-1-yl propylamino)-1H-pyrazolo[3,4-d]pyrimidin-3-yl)-phenyl]} urea [Example 139]		100 to 300 nM			VEGFR3 PIC50 VEGFR-3-HTRF assay [1]: + (+ = PIC50 = 5.00 to less than 6.00); TIE2 PIC50 TIE2-E2 assay [3]: ++++ (++++ = PIC50 = greater than or equal to 7.40); VEGFR2 PIC50 VEGFR-E2 assay (GST-VEGFR2): + (+ = PIC50 = 5.00 to less than 6.00)
CC(=O)c1cccc(NC(=O)Nc2ccc(-c3nn(C)c4nc(NCCN5CCOCC5)ncc34)cc2C)c1 [Example 163]	25%		> 10000 nM		
CC(C)n1nc(-c2ccc(NC(=O)Nc3cc(C(F)(F)F)ccc3F)cc2)c2cnc(NCCN3CCOCC3)nc21 [Example 78]		≥ 300 nM			VEGFR3 PIC50 VEGFR-3-HTRF assay [1]: + (+ = PIC50 = 5.00 to less than 6.00); TIE2 PIC50 TIE2-E2 assay [3]: +++ (+++ = PIC50 = 7.00 to less than 7.40); VEGFR2 PIC50 VEGFR-E2 assay (GST-VEGFR2): + (+ = PIC50 = 5.00 to less than 6.00)
CN1CCN(CCCNc2ncc3c(-c4ccc(NC(=O)Nc5cc(C(F)(F)F)ccc5F)cc4)nn(C)c3n2)CC1 [Example 64]		≥ 300 nM	≤ 39.8 nM	> 10000 nM	IC50 [1]: > 10000 nM
Cn1nc(-c2ccc(NC(=O)Nc3cc(C(F)(F)F)ccc3F)cc2)c2cnc(NCCN3CCNC3=O)nc21 [Example 90]		≥ 300 nM	39.8 to 100 nM	1000 to 10000 nM	IC50 [1]: 1000 to 10000 nM
Cc1cc(-c2nn(C)c3nc(NCCN4CCOCC4)ncc23)ccc1NS(=O)(=O)c1cc(Cl)sc1Cl [Example 155]	23%				
Cn1nc(-c2ccc(NC(=O)Nc3cc(C(F)(F)F)ccc3F)cc2)c2cnc(NCCCCN3CCCC3)nc21 [Example 91, 1-(2-Fluoro-5-trifluoromethyl-phenyl)-3-{4-[1-methyl-6-[(4-pyrrolidin-1-yl)-butylamino]-1H-pyrazolo[3,4-d]pyrimidin-3-yl]-phenyl} urea]		100 to 300 nM	≤ 39.8 nM	1000 to 10000 nM	IC50 [1]: 1000 to 10000 nM
Cn1nc(-c2ccc(NC(=O)Nc3cc(C(F)(F)F)ccc3F)cc2)c2cnc(NCCO)nc21 [Example 29, 1-(2-Fluoro-5-trifluoromethyl-phenyl)-3-{4-[(2-hydroxy-ethylamino)-methyl-1H-pyrazolo[3,4-d]pyrimidin-3-yl]-phenyl}-urea]					IC50 (Recombinant GST-Tie2): 100 to 300 nM
CCN(CC)CCNc1ncnc2c1c(-c1ccc(NC(=O)Nc3cc(C(F)(F)F)ccc3F)cc1)nn2C [Example 33, 1-{4-[(2-Diethylamino-ethylamino)-methyl-1H-pyrazolo[3,4-d]pyrimidin-3-yl]-phenyl}-3-(2-fluoro-5-trifluoromethyl-phenyl)-urea]					IC50 (Recombinant GST-Tie2): ≥ 300 nM
Cn1nc(-c2ccc(NC(=O)Nc3cc(C(F)(F)F)ccc3F)cc2)c2cnc(NCCCCO)nc21 [Example 93, 1-(2-Fluoro-5-trifluoromethyl-phenyl)-3-{4-[1-methyl-6-(4-hydroxy-butylamino)-1H-pyrazolo[3,4-d]pyrimidin-3-yl]-phenyl} urea]		100 to 300 nM	≤ 39.8 nM	1000 to 10000 nM	IC50 [1]: 1000 to 10000 nM
Cc1cc(-c2nn(C)c3nc(NCCN4CCOCC4)ncc23)ccc1NS(=O)(=O)c1ccc(Cl)s1 [Example 154]	37%				
Cn1nc(-c2ccc(NS(=O)(=O)c3ccccc3F)cc2)c2cnc(NCCN3CCOCC3)nc21 [Example 148]	36%				
Cc1cc(-c2nn(C)c3nc(NCCN4CCOCC4)ncc23)ccc1NS(=O)(=O)c1cccc(C(F)(F)F)c1 [Example 152]	13%				
Cn1nc(-c2ccc(NS(=O)(=O)c3cccc(C(F)(F)F)c3)c(C(F)(F)F)c2)c2cnc(NCCN3CCOCC3)nc21 [Example 157]	0%			> 10000 nM	
Cc1cc(-c2nn(C)c3nc(NCCN4CCOCC4)ncc23)ccc1NS(=O)(=O)c1cccc(Cl)c1Cl [Example 151]	41%			> 10000 nM	
Cn1nc(-c2ccc(NS(=O)(=O)c3ccc(Cl)s3)cc2)c2cnc(NCCN3CCOCC3)nc21 [Example 150]	41%				
Cn1nc(-c2ccc(NS(=O)(=O)c3cccc(C(F)(F)F)c3)cc2)c2cnc(NCCN3CCOCC3)nc21 [Example 156]	23%				
Cn1nc(-c2ccc(NC(=O)Nc3cc(C(F)(F)F)ccc3F)cc2)c2cnc(NCCCN3CCOCC3)nc21 [Example 84]		≥ 300 nM	≤ 39.8 nM	1000 to 10000 nM	IC50 [1]: > 10000 nM

Source: US7217710B2, “Substituted pyrazolopyrimidines” (SmithKline Beecham Corporation, priority 2001, dated 2007)
